Square brackets hold non-standard residues; d marks the D form. Peptide text beside a SMILES is read from it. d(pT) = C[C@H](OP(=O)(O)O)[C@@H](N)C(=O)O; 2Nal = N[C@@H](Cc1ccc2ccccc2c1)C(=O)O; Pip = O=C(O)[C@@H]1CCCCN1
What was measured:
hPar14 = hPar14 (Homo sapiens, UniProt Q9Y237); experiment: Protease coupled PPIase assay, hPar14; type: biochemical; conditions: up to 50 μM
Experimental: FIG. 6 depicts the influence of peptide 17 on the hPar14 PPIase activity. The apparent first order rate constant kobs determined for the cis to trans isomerization of the arginyl-prolyl peptide bond of the substrate Suc-Ala-Arg-Pro-Phe-NH-Np (SEQ ID NO: 3) was measured using the protease coupled PPIase assay. α-Chymotrypsin was used as isomer specific protease. As control, the nonphosphorylated derivative of peptide 17 was used.
PPIase activities were monitored on a Hewlett-Packard 8452A diode array spectrophotometer according to Fischer et al., 1984 and Zhang et al., 2002. The hPar14 PPIase activity was measured with Suc-Ala-Arg-Pro-Phe-NH-Np (SEQ ID NO: 3) (final concentration 75 μM) as substrate and α-chymotrypsin (final concentration 60 μM) as isomer specific protease. PPIase activity of hCyp 18 and FKBP12 were measured using Suc-Ala-Ala-Pro-Phe-NH-Np (SEQ ID NO: 7) as substrate (final concentration 16 μM) and α-chymotrypsin (final concentration 60 μM) as isomer specific protease. PPIase activity of hPin1 was measured with Ac-Ala-Ala-Ser(PO3H2)-Pro-Arg-NH-Np (SEQ ID NO: 4) (final concentration 10 μM) as substrate and trypsin (final concentration 60 μM) as isomer specific protease. Final concentrations of the PPIases were 1.7 μM for hPar14, 4 nM for hPin1, 7 nM for FKBP12 and 9.7 nM for hCyp18. […] Measurements were monitored at 390 nm. […]

XlPin1 = experiment: Protease free PPIase assay, XlPin1; type: biochemical, X. laevis
Experimental: Protein concentrations were determined using the extinction coefficient ε280=21030 M^−1 cm^−1 for hPin1, ε280=6979 M^−1 cm^−1 for the hPin1 PPIase domain, ε280=21030 M^−1 cm^−1 for XlPin1, ε280=8250 M^−1 cm^−1 for hPar14 and ε280=8250 M^−1 cm^−1 for hCyp18. Extinction coefficients were calculated using the program ProtParam Tool at ExPASy (SIB, Switzerland). All measurements were done at 10° C. in 35 mM Hepes buffer (pH 7.8).
The determination of the kinetic constants of the cis/trans isomerization within the protease-free system was performed using fluorescence based measurements (Garcia-Echeverria et al., 1993, Zhang et al., 2002) on a Hitachi F-3010 fluorescence spectrophotometer with H-Abz-Ala-Glu-Pro-Phe-NH-Np (SEQ ID NO: 2) as substrate. The substrate stock solution was 12 mM in anhydrous trifluoroethanol/0.55 M LiCl. […] The excitation wavelength was 320 nm (spectral bandwidth 3 nm) and emission was detected at 420 nm (spectral bandwidth 10 nm).
Data analysis was performed by single-exponential nonlinear regression using the SigmaPlot Scientific Graphing System Version 5.00 (Jandel Corp.). […] The rate constant k0 was determined in the absence of Pin1. The first order rate constants kenz was calculated from the equation kenz=kobs−k0. […]

FKBP12 = FKBP12 (Homo sapiens, UniProt P62942); experiment: Protease coupled PPIase assay, FKBP12; type: biochemical
FKBP12, sequence (P62942 whole entry): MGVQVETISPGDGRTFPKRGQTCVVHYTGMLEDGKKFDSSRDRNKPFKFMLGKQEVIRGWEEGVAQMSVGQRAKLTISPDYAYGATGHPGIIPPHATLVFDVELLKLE
Experimental: (§1) PPIase activities were monitored on a Hewlett-Packard 8452A diode array spectrophotometer according to Fischer et al., 1984 and Zhang et al., 2002. The hPar14 PPIase activity was measured with Suc-Ala-Arg-Pro-Phe-NH-Np (SEQ ID NO: 3) (final concentration 75 μM) as substrate and α-chymotrypsin (final concentration 60 μM) as isomer specific protease. PPIase activity of hCyp 18 and FKBP12 were measured using Suc-Ala-Ala-Pro-Phe-NH-Np (SEQ ID NO: 7) as substrate (final concentration 16 μM) and α-chymotrypsin (final concentration 60 μM) as isomer specific protease. PPIase activity of hPin1 was measured with Ac-Ala-Ala-Ser(PO3H2)-Pro-Arg-NH-Np (SEQ ID NO: 4) (final concentration 10 μM) as substrate and trypsin (final concentration 60 μM) as isomer specific protease. […] Measurements were monitored at 390 nm.
(§2) Data analysis was performed by single-exponential nonlinear regression using the SigmaPlot Scientific Graphing System Version 5.00 (Jandel Corp.). […] The rate constant k0 was determined in the absence of Pin1. The first order rate constants kenz was calculated from the equation kenz=kobs−k0. IC50 and Ki values were determined by fitting the first order rate constants kenz against the concentration of the inhibitory peptide by nonlinear regression according to Schutkowski et al., 1995 or a model for tight binding inhibitors (Morrison, 1969).

hPin1 PPIase domain = molecular target: T1, hPin1 PPIase domain (Homo sapiens, UniProt Q13526); experiment: Isothermal titration calorimetry (ITC), isolated PPIase domain; type: binding
T1 construct: The hPin1 PPIase domain comprising of amino acid residues Gly45-Glu163 was amplified by PCR; made in house; host or cells: E. coli BL21(DE3) (pET28a)
T1 sequence (Q13526 45-163): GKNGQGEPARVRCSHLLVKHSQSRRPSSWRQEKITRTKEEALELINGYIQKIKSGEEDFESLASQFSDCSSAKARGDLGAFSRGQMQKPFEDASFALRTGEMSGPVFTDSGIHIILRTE
Experimental: Calorimetric experiments were performed using a VP-ITC titration calorimeter (MicroCal, Inc, Northampton, Mass.) at 10° C. All solutions were degassed under vacuum prior to use. Solutions of hPin1 and hPin1 PPIase domain were dialyzed against 10 mM Hepes (pH 7.8). The protein concentration in the sample cell was adjusted to 6.5 μM using the same batch of buffer. Protein concentrations were determined as described above. The volume of the protein solution in the sample cell was 1.4 ml. The injection syringe was filled with 300 μl solution of peptide 17 (see table III) (250 μM in the same batch of buffer as used for dialyses). Each titration experiment consisted of a single 1 μl injection followed by 16 identical injections of 5 μl solution of peptide 17.
The stability of peptides 15 and 17 in cytoplasmic extracts from HeLa cells was investigated using MALDI-TOF mass spectrometry and capillary electrophoresis, respectively. In the cytosolic incubation mixture, streptavidin sepharose beads served to isolate peptide 15 fragments after prolonged incubation. […] Therefore, phosphopeptides are useless for evaluating Pin1 functions in vivo unless dephosphorylation can be avoided.

hCyp18 = hCyp18 (Homo sapiens, UniProt P62937); experiment: Protease coupled PPIase assay, hCyp18; type: biochemical
hCyp18, sequence (P62937 whole entry): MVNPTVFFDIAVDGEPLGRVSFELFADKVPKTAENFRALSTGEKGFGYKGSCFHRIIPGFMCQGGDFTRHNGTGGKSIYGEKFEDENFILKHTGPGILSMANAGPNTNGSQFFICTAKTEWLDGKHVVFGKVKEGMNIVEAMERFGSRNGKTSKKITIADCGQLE
Experimental: as §1, §2

hPar14, sequence (Q9Y237 whole entry): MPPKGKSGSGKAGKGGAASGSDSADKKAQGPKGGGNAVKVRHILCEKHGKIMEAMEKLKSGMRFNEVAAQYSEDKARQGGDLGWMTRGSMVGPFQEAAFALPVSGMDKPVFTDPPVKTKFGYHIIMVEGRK

## CC(=O)N[C@@H](Cc1ccccc1)C(=O)N[C@@H](C(=O)N1CCCC[C@H]1C(=O)N[C@@H](Cc1ccc2ccccc2c1)C(=O)N[C@@H](CCC(N)=O)C(N)=O)[C@H](C)OP(=O)(O)O [Peptide 17, Ac-Phe-D-Thr(PO3H2)-Pip-Nal-Gln-NH2] (Ac-F[d(pT)][Pip][2Nal]Q-NH2)
hPar14
  inhibition of hPar14 PPIase activity: No inhibition
XlPin1; footnote b) (text of footnote not given), probably XlPin1
  Ki: 34.4 nM
XlPin1; hPin1 versus XlPin1
  difference in affinity for recombinant Pin1 of both organisms: no marked difference
FKBP12
  inhibition of FKBP12: no inhibition
hPin1 PPIase domain
  thermodynamic constants, isolated PPIase domain versus full-length hPin1: same thermodynamic constants
hCyp18
  inhibition of Cyp18: no inhibition
